Legend:
[1] = test system: houseflies (Musca domestica); assay: Mortality test against houseflies by topical application method (Test Example 1); format: in vivo; conditions: female adult houseflies, 24 hours, 25° C.
Method: Each test compound was accurately weighed and a 1% solution and a 0.1% solution of the sample in acetone were prepared. A 1 μl portion of either of the above solutions was micropipetted onto the thoracic dorsal part of each female adult housefly (Musca domestica) under ether anaesthesia and the fly was released in a high-walled dish together with feed. The dish was covered with a metal-wire net and maintained at 25° C. After 24 hours, the test flies were inspected for deaths and the mortality (%) was calculated. Thirty test flies were used per concentration group.

[2] = test system: guppies; assay: Fish toxicity test (Test Example 6); format: in vivo; conditions: female guppies, 48 hours, 25° C.; concentration at which 90% or more were killed
Method: To 5 l of water were added 250 mg of sorpol SM-200 (registered trademark, Toho Chemical Co., Ltd.) or Tween-20 (commercial product) as an emulsifier (surfactant) as well as 2.5 ml of an acetone solution containing one of the test compounds in a predetermined concentration. The mixture was stirred well to prepare a test water. Ten female guppies from 3 to 4 months of age were released into the test water and maintained at 25° C. The concentration of the test compound at which 90% or more of the guppies were killed during the ensuring 48 hours was determined. (This concentration is referred to as LC90).

[3] = Light stability test (Test Example 4); format: physicochemical; conditions: direct sunlight between glass plates, 12° C., relative to aluminum foil-covered control; for remaining at 4 h: read-out: Residue (%) Exposure time 4 hrs.; for remaining at 8 h: read-out: Residue (%) Exposure time 8 hrs.
Method: Into 2.0 ml of acetone were dissolved 80 mg of each test compound. A 5 μl portion of the solution was taken and spread on a glass plate (Micro Standard Cover Glass, 18 m/m No. 1, 200 pcs, Matsunami Glass Ind., Ltd.) and the acetone was evaporated. Then, a similar glass plate was superimposed on the above plate in such a manner that the test liquid was sandwitched. The specimen was exposed to direct sunlight at an atmospheric temperature of 12° C. for a predetermined exposure time. As an unexposed control, a similar specimen was covered with an aluminum foil. The test liquid was washed away with 1.0 ml of methanol containing 0.04% of dioctyl phthalate as an internal reference and high-speed liquid chromatography was carried out on the washings to determine the residual amount of the test compound. The residue (%) was calculated with the value for the aluminum foil-covered control specimen as the standard.

[4] = test system: green rice leafhoppers; assay: Spray test on rice seedlings against green rice leafhoppers (Utility Example 1); format: in vivo, green rice leafhoppers (Nephotettix cincticeps); conditions: 30% emulsifiable concentrate (Formulation Example 5) diluted 300-fold, 10 ml/pot, 24 hours
Method: To 30 parts of each of Compounds [1], [2], [5] to [13] and [17] to [19] was added 50 parts of xylene and 20 parts of Sorpol SM-200 (a surfactant, trademark of Toho Chemical Co., Ltd.). The mixture was stirred well and dissolved to obtain a 30% emulsifiable concentrate.
The emulsifiable concentrate prepared from Compounds [1], [2], [6], [7], [9], [10], [12] and [13] in Formulation Example 5 were each diluted 300-fold with water. Then, each of the dilutions was sprayed over rice seedlings 25 days after sowing at the rate of 10 ml/pot. The pot was covered with a wire-net and 15 green rice leafhoppers were released under the net. After 24 hours, the leafhoppers were examined for deaths. The mortality (%) was not less than 90% for each of Compounds [1], [2], [6], [7], [9], [10], [12] and [13].

[5] = test system: cockroaches (Blattella germanica); assay: Mortality test against cockroaches by topical application method (Test Example 3); format: in vivo; conditions: 1 μl of 1% solution in acetone, female cockroaches, 24 hours, 25° C.
Method: Each test compound was accurately weighed and made in a 1% solution in acetone. Then, 1 μl of the above solution was micropipetted onto the abdominal part of each female cockroach (Blattella germanica) under ether anaesthesia. The roaches were released in a high-walled dish together with feed and, after the disk was covered with a metal wire net, same was maintained at 25° C. Fifteen roaches per group were employed. After 24 hours, the test roaches were inspected for deaths and the mortality (%) for each group was calculated.

[6] = Hydrolysis resistance test (Test Example 5); format: physicochemical; conditions: acetone/water, reflux for 2 days; read-out: Residue (%)
Method: Into about 8 ml of acetone were dissolved 100 mg of each test compound and, then, 1.0 g of water was added to this solution to prepare a mixed solution. This mixed solution was refluxed for 2 days. After concentration to about one half of the original volume and with the addition of dioctyl phthalate as an internal reference, the residual amount of the compound was determined by high-speed liquid chromatography. The residue (%) was then calculated.

[7] = test system: houseflies; assay: Settling mist mortality test against houseflies, oil preparations of Formulation Example 2 (Utility Example 3); format: in vivo, houseflies (Musca domestica); conditions: oil preparation with 0.1 part compound and 0.1 part resmethrin per 100 parts, 24 hours
Method: To 0.1 part of each of Compounds [1] to [17] was added 0.1 part of resmethrin, followed by the addition of a sufficient amount of kerosene to make 100 parts. The mixture was stirred to obtain an oil preparation of each compound.
(§1) By the settling mist method, a mortality test against houseflies was carried out using the oil preparations made in Formulation Example 2 from Compounds [1], [2], [5] to [11] and [17]. After 24 hours, the flies were examined for deaths. The mortality (%) was not less than 90% for each of Compounds [1], [2], [5] to [11] and [17].

[8] = test system: house-flies; assay: Settling mist mortality test against houseflies, oil preparations of Formulation Example 3 (Utility Example 4); format: in vivo, houseflies (Musca domestica); conditions: oil preparation with 0.1 part compound and 0.08 part permethrin per 100 parts, 24 hours
Method: To 0.1 part of each of Compounds [1] to [28] was added 0.08 part of permethrin, followed by the addition of a sufficient amount of kerosene to make 100 parts. The mixture was stirred to obtain an oil preparation of each compound.
as §1, with “against house-flies” for “against houseflies”, “preparations obtained” for “preparations made”, “Example 3” for “Example 2”

[9] = test system: green rice leafhoppers (Nephotettix cincticeps); assay: Mortality test against green rice leafhoppers by topical application method (Test Example 2); format: in vivo; conditions: 0.1% solution in acetone, female adults, 24 hours, 25° C.
Method: Each test compound was accurately weighed and an 0.1% solution in acetone was prepared. Female adults of green rice leafhopper (Nephotettix cincticeps) were anaesthetized with carbon dioxide gas and 0.5 µl of the above solution was micropipetted onto the thoracic abdominal part of each leafhopper. Then, the test leafhoppers were kept at 25° C. with access to rice plant seedlings. Each group comprised 15 green rice leafhoppers. After 24 hours, the leafhoppers were inspected for deaths and the mortality (%) was calculated for each compound.

Question: For `C=CCC1=C(C)C(OC(=O)C2C(C=C(C)C)C2(C)C)CC1=O` (stereo not drawn) [Allethrin, reference compound], which “Mortality (%) 1 μg/fly” value [1] is on record?
Answer: 50%

Question: What about the LC90 [2] of the same compound?
Answer: Not more than 0.5 ppm

Question: And the remaining at 4 h [3]?
Answer: 35%

Question: What about the remaining at 8 h [3] of the same compound?
Answer: 17%

Question: Which results are given for `CC(C)C(CC=C(Cl)Cl)C(=O)OCc1cccc(Oc2ccccc2)c1` (stereo not drawn) [Compound [5], 3-Phenoxybenzyl α-(3,3-dichloroallyl)isovalerate]?
Answer: Mortality (%) 1 μg/fly [1]: 100%; Mortality (%) 10 μg/fly [1]: 100%; remaining at 4 h [3]: 99%; remaining at 8 h [3]: 98%

Question: For `CC(C)C(CC=C(Cl)Cl)C(=O)OC(C#N)c1cccc(Oc2ccccc2)c1` (stereo not drawn) [Compound [6], α-Cyano-3-phenoxybenzyl α-(3,3-dichloroallyl)isovalerate], which “Mortality (%)” value [4] is on record?
Answer: not less than 90%

Question: What about the “Mortality (%) 1 μg/fly” value [1] of the same compound?
Answer: 100%

Question: What about the “Mortality (%) 10 μg/fly” value [1] of the same compound?
Answer: 100%

Question: What about the mortality at 1 %, 0.01 mg [5] of the same compound?
Answer: 100%

Question: What about the remaining at 48 h [6] of the same compound?
Answer: > 90%

Question: And the remaining at 4 h [3]?
Answer: 92%

Question: And the remaining at 8 h [3]?
Answer: 92%

Question: For `C#CC(OC(=O)C(CC=C(Cl)Cl)C(C)C)c1cccc(Oc2ccccc2)c1` (stereo not drawn) [Compound [7], α-Ethynyl-3-phenoxybenzyl α-(3,3-dichloroallyl)isovalerate], which “Mortality (%)” value [4] is on record?
Answer: not less than 90%

Question: And the “Mortality (%) 1 μg/fly” value [1]?
Answer: 90%

Question: What about the “Mortality (%) 10 μg/fly” value [1] of the same compound?
Answer: 100%

Question: And the mortality at 1 %, 0.01 mg [5]?
Answer: 80%

Question: What about the remaining at 48 h [6] of the same compound?
Answer: > 90%

Question: What about the remaining at 4 h [3] of the same compound?
Answer: 96%

Question: What about the remaining at 8 h [3] of the same compound?
Answer: 96%

Question: Which results are given for `CC(C)C(CC=C(Br)Br)C(=O)OCc1cccc(Oc2ccccc2)c1` (stereo not drawn) [Compound [8], 3-Phenoxybenzyl α-(3,3-dibromoallyl)isovalerate]?
Answer: Mortality (%) 1 μg/fly [1]: 100%; Mortality (%) 10 μg/fly [1]: 100%

Question: Which “Mortality (%)” value [4] does the source give for `CC(C)C(CC=C(Br)Br)C(=O)OC(C#N)c1cccc(Oc2ccccc2)c1` (stereo not drawn) [Compound [9], α-Cyano-3-phenoxybenzyl α-(3,3-dibromoallyl)isovalerate] here?
Answer: not less than 90%

Question: What about the “Mortality (%) 1 μg/fly” value [1] of the same compound?
Answer: 100%

Question: And the “Mortality (%) 10 μg/fly” value [1]?
Answer: 100%

Question: Which results are given for `C#CC(OC(=O)C(CC=C(Br)Br)C(C)C)c1cccc(Oc2ccccc2)c1` (stereo not drawn) [Compound [10], α-Ethynyl-3-phenoxybenzyl α-(3,3-dibromoallyl)isovalerate]?
Answer: Mortality (%) [4]: not less than 90%; Mortality (%) 1 μg/fly [1]: 100%; Mortality (%) 10 μg/fly [1]: 100%; LC90 [2]: ≥ 10 ppm; remaining at 4 h [3]: 97%; remaining at 8 h [3]: 97%

Question: For `CC(C)(CC=C(Cl)Cl)CC(=O)OCc1cccc(Oc2ccccc2)c1` [Compound [11], 3-Phenoxybenzyl β-(3,3-dichloroallyl)isovalerate], which “Mortality (%) 1 μg/fly” value [1] is on record?
Answer: 100%

Question: What about the “Mortality (%) 10 μg/fly” value [1] of the same compound?
Answer: 100%

Question: What about the remaining at 48 h [6] of the same compound?
Answer: > 90%

Question: And the remaining at 4 h [3]?
Answer: 100%

Question: What about the remaining at 8 h [3] of the same compound?
Answer: 96%

Question: What does the source list for `CC(C)(CC=C(Cl)Cl)CC(=O)OC(C#N)c1cccc(Oc2ccccc2)c1` (stereo not drawn) [Compound [12], α-Cyano-3-phenoxybenzyl β-(3,3-dichloroallyl)isovalerate]?
Answer: Mortality (%) [4]: not less than 90%; Mortality (%) 1 μg/fly [1]: 100%; Mortality (%) 10 μg/fly [1]: 100%; remaining at 48 h [6]: > 90%; remaining at 4 h [3]: 92%; remaining at 8 h [3]: 90%

Question: What does the source list for `C#CC(OC(=O)CC(C)(C)CC=C(Cl)Cl)c1cccc(Oc2ccccc2)c1` (stereo not drawn) [Compound [13], α-Ethynyl-3-phenoxybenzyl β-(3,3-dichloroallyl)isovalerate]?
Answer: Mortality (%) [4]: not less than 90%; Mortality (%) 1 μg/fly [1]: 90%; Mortality (%) 10 μg/fly [1]: 100%; remaining at 4 h [3]: 100%; remaining at 8 h [3]: 100%

Question: With `CC(C)(CC(=O)OCc1cccc(Oc2ccccc2)c1)C(Cl)C=C(Cl)Cl` (stereo not drawn) [Compound [17], 3-Phenoxybenzyl β-(1,3,3-trichloroallyl)isovalerate] as the compound, how does the “Mortality (%)” value [7] read?
Answer: not less than 90%

Question: What about the “Mortality (%) 1 μg/fly” value [1] of the same compound?
Answer: 100%

Question: What about the “Mortality (%) 10 μg/fly” value [1] of the same compound?
Answer: 100%

Question: And the “Mortality (%)” value [8]?
Answer: not less than 90%

Question: What about the remaining at 4 h [3] of the same compound?
Answer: 100%

Question: What about the remaining at 8 h [3] of the same compound?
Answer: 100%

Question: With `CC(C)(CC(=O)OC(C#N)c1cccc(Oc2ccccc2)c1)C(Cl)C=C(Cl)Cl` (stereo not drawn) [Compound [18], α-Cyano-3-phenoxybenzyl β-(1,3,3-trichloroallyl)isovalerate] as the compound, how does the “Mortality (%) 10 μg/fly” value [1] read?
Answer: 100%

Question: And the remaining at 48 h [6]?
Answer: > 90%

Question: What about the remaining at 4 h [3] of the same compound?
Answer: 98%

Question: And the remaining at 8 h [3]?
Answer: 97%

Question: For `C#CC(OC(=O)CC(C)(C)C(Cl)C=C(Cl)Cl)c1cccc(Oc2ccccc2)c1` (stereo not drawn) [Compound [19], α-Ethynyl-3-phenoxybenzyl β-(1,3,3-trichloroallyl)isovalerate], which “Mortality (%) 10 μg/fly” value [1] is on record?
Answer: 100%

Question: What about the remaining at 4 h [3] of the same compound?
Answer: 97%

Question: What about the remaining at 8 h [3] of the same compound?
Answer: 92%

Question: For `C=CCC(C(=O)OCc1cccc(Oc2ccccc2)c1)C(C)C` (stereo not drawn) [reference compound], which “Mortality (%) 1 μg/fly” value [1] is on record?
Answer: 0%

Question: And the “Mortality (%) 10 μg/fly” value [1]?
Answer: 0%

Question: Which “Mortality (%) 1 μg/fly” value [1] does the source give for `CC(C)=CCC(C(=O)OCc1cccc(Oc2ccccc2)c1)C(C)C` (stereo not drawn) [reference compound] here?
Answer: 0%

Question: For `CC(C)C(C=C(Cl)Cl)C(=O)OCc1cccc(Oc2ccccc2)c1` (stereo not drawn) [reference compound], which mortality at 0.1 % [9] is on record?
Answer: 40%

Source: patent publication US4409238A, “Insecticides and insecticidal compositions” (Kuraray Co., Ltd., priority 1977, dated 1983)
